Source: patent US3996359A, “Novel stereoisomeric component A of stereoisomeric mixtures of 2'-unsymmetrical 16,17-methylenedioxy steroid 21-acylates, compositions thereof, and method of treating therewith” (AB Bofors, priority 1972, dated 1976)

System: rats subjected to adrenalectomy (granuloma around implanted cotton wads)
Assay: granulom test (cotton-pellet test) on rats subjected to adrenalectomy: granuloma growth, thymus weight, body weight increase
Format: in vivo, rat (Sprague-Dawley)
Details: for Dose required to obtain 50% inhibition of Granuloma growth: Table 3, adrenalectomized young male Sprague-Dawley rats, topical in implanted cotton wads, day 8; for Dose required to obtain 25% inhibition of Body weight Increase / Dose required to obtain 50% inhibition of Thymus weight: rat, in vivo, 11520 min
Description: In the following this active stereoisomeric component will always be designated B. As regards the steroids referred to in connection with the present invention the stereoisomeric mixture as well as the individual stereoisomeric components A and B have been investigated with regard to antiinflammatory activity in granulom test on rats subjected to adrenalectomy. The experimental procedure used corresponds largely to that described by G. Engelhardt: Arzneimittel-Forschung, 13, p. 588, 1963. According to this procedure the test substances are applied topically in the implanted cottom wads. It is thereby possible to study the local antiinflammatory effect in granulomas and also systemic effects in the form of retrogression of thymus and inhibition of bodyweight growth.
Young male rats of the Sprague-Dawley strain weighing about 110-130 g were subjected to adrenalectomy under ether narcosis. Two sterilized cottom wads of each about 6 mg were implanted simultaneously subcutaneously on the lateral side of the spinal. After awakening the animals were stored 5 per cage and were supplied with normal food and 1% sodium chloride solution as drinking water. On the eighth test day the animals were sacrificed by ether narcosis. The granuloma formed around the cotton wads were carefully recovered and thymus and body weights were measured. The two granuloma from each animal were dried over night at 80° C and weighed. After subtraction of the initial weight of the cotton wads the weight increase was used as a measure of the granulom growth.
The test substances were used dissolved in ethyl acetate. Under aseptic conditions 0.05 ml of said solutions were injected into each of the cotton wads, whereafter the solvent was allowed to evaporate in the desiccator. Normally 3 concentrations of each test substance with the standard doses 3.3, 30 and 270 γ/animal were investigated. Each test group normally comprised 10 rats. The cotton wads of the control group were injected with only ethyl acetate, but were in other respects treated in the same way. When considering the effects of the test substances the average values of granulom growth, thymus weight and body weight increase day 0-8 were measured in each group in absolute figures and in % of the corresponding figure of the control group. Dose-response curves were drafted and used for estimating the doses giving 50 % reduction of granulom growth and of thymus weight and 25 % decrease of body weight increase.
The following Table 4 discloses the results of the cotton-pellet test hereinbefore described, giving in addition figures for the therapeutic ratios, that is, the ratios of the ED50 for thymus weight inhibition divided by the ED50 for granuloma formation inhibition, and the ED25 for body weight increase inhibition over the ED50 for granuloma formation inhibition. As will be recognized, the higher the number for the therapeutic ratio, the more favorable the therapeutic ratio. […] As will be noted for the table, the therapeutic ratio for thymus over granuloma for the Component A esters is 4.2, 7.1, 4.5, 2.6, 2.2, 1.7, 2.5 and 1.7 times as good as it is for the corresponding Component B ester isomer, whereas the therapeutic ratio for the Component A ester isomer as far as body weight is granuloma 2.7, 3.3, 9.8, 6.4, 2.3, 2.8, 3.3 and 2.8 times as favorable as for the corresponding Component B ester isomer.

| Structure (SMILES) | Dose required to obtain 50% inhibition of Granuloma growth | Dose required to obtain 25% inhibition of Body weight Increase | Dose required to obtain 50% inhibition of Thymus weight |
| --- | --- | --- | --- |
| CCC1OC2CC3C4CCC5=CC(=O)C=CC5(C)C4(F)C(O)CC3(C)C2(C(=O)CO)O1 (mixture of isomers) [2 A+B] | 35 γ/animal | 140 γ/animal | 100 γ/animal |
| CCCC1OC2CC3C4CCC5=CC(=O)C=CC5(C)C4(F)C(O)CC3(C)C2(C(=O)CO)O1 (mixture of isomers) [3 A+B] | 10 γ/animal | > 30 γ/animal | > 30 γ/animal |
| CCCCC1OC2CC3C4CCC5=CC(=O)C=CC5(C)C4(F)C(O)CC3(C)C2(C(=O)CO)O1 (mixture of isomers) [4 A+B] | < 3 γ/animal | 170 γ/animal | 70 γ/animal |
| CCCCCC1OC2CC3C4CCC5=CC(=O)C=CC5(C)C4(F)C(O)CC3(C)C2(C(=O)CO)O1 (mixture of isomers) [5 A+B] | 17 γ/animal | > 270 γ/animal | 130 γ/animal |
| CCCC1OC2CC3C4CC(F)C5=CC(=O)C=CC5(C)C4(F)C(O)CC3(C)C2(C(=O)CO)O1 (mixture of isomers) [8 A+B] | 5 γ/animal | 50 γ/animal | 10 γ/animal |
| CCCC1OC2CC3C4CCC5=CC(=O)C=CC5(C)C4(F)C(O)CC3(C)C2(C(=O)COC(=O)c2cc3ccccc3o2)O1 (mixture of isomers) [20 A+B] | < 3 γ/animal | 20 γ/animal | 25 γ/animal |
| CCCC1OC2CC3C4CCC5=CC(=O)C=CC5(C)C4(F)C(O)CC3(C)C2(C(=O)COC(=O)c2cccnc2)O1 (mixture of isomers) [21 A+B] | 7 γ/animal | 10 γ/animal | 35 γ/animal |
| CCCCC(=O)OCC(=O)C12OC(CCC)OC1CC1C3CCC4=CC(=O)C=CC4(C)C3(F)C(O)CC12C (mixture of isomers) [22 A+B] | 10 γ/animal | 30 γ/animal | 50 γ/animal |
| CCCC1OC2CC3C4CC(F)C5=CC(=O)C=CC5(C)C4(F)C(O)CC3(C)C2(C(=O)COC(=O)c2cc3ccccc3o2)O1 (mixture of isomers) [25 A+B] | < 3 γ/animal | 10 γ/animal | 10 γ/animal |
| CCCC1OC2CC3C4CCC5=CC(=O)C=CC5(C)C4C(O)CC3(C)C2(C(=O)COC(C)=O)O1 (mixture of isomers) [27 A+B] | < 3 γ/animal | 40 γ/animal | 60 γ/animal |
| CC1O[C@@H]2C[C@H]3[C@@H]4CCC5=CC(=O)C=C[C@]5(C)[C@@]4(F)[C@@H](O)C[C@]3(C)[C@]2(C(=O)CO)O1 (single isomer, unassigned) [1 A] | 270 γ/animal | 60 γ/animal | 115 γ/animal |
| CC1O[C@@H]2C[C@H]3[C@@H]4CCC5=CC(=O)C=C[C@]5(C)[C@@]4(F)[C@@H](O)C[C@]3(C)[C@]2(C(=O)CO)O1 (single isomer, unassigned) [1 B] | 30 γ/animal | 30 γ/animal | 50 γ/animal |
| CCC1O[C@@H]2C[C@H]3[C@@H]4CCC5=CC(=O)C=C[C@]5(C)[C@@]4(F)[C@@H](O)C[C@]3(C)[C@]2(C(=O)CO)O1 (single isomer, unassigned) [2 A] | 25 γ/animal | 90 γ/animal | 130 γ/animal |
| CCC1O[C@@H]2C[C@H]3[C@@H]4CCC5=CC(=O)C=C[C@]5(C)[C@@]4(F)[C@@H](O)C[C@]3(C)[C@]2(C(=O)CO)O1 (single isomer, unassigned) [2 B] | 10 γ/animal | 100 γ/animal | 60 γ/animal |
| CCCC1O[C@@H]2C[C@H]3[C@@H]4CCC5=CC(=O)C=C[C@]5(C)[C@@]4(F)[C@@H](O)C[C@]3(C)[C@]2(C(=O)CO)O1 (single isomer, unassigned) [3 A] | 25 γ/animal | > 30 γ/animal | > 30 γ/animal |
| CCCC1O[C@@H]2C[C@H]3[C@@H]4CCC5=CC(=O)C=C[C@]5(C)[C@@]4(F)[C@@H](O)C[C@]3(C)[C@]2(C(=O)CO)O1 (single isomer, unassigned) [3 B] | 3 γ/animal | 100 γ/animal | 17 γ/animal |
| CCCCC1O[C@@H]2C[C@H]3[C@@H]4CCC5=CC(=O)C=C[C@]5(C)[C@@]4(F)[C@@H](O)C[C@]3(C)[C@]2(C(=O)CO)O1 (single isomer, unassigned) [4 A] | < 3 γ/animal | 170 γ/animal | 100 γ/animal |
| CCCCC1O[C@@H]2C[C@H]3[C@@H]4CCC5=CC(=O)C=C[C@]5(C)[C@@]4(F)[C@@H](O)C[C@]3(C)[C@]2(C(=O)CO)O1 (single isomer, unassigned) [4 B] | < 3 γ/animal | 100 γ/animal | 50 γ/animal |
| CCCCCC1O[C@@H]2C[C@H]3[C@@H]4CCC5=CC(=O)C=C[C@]5(C)[C@@]4(F)[C@@H](O)C[C@]3(C)[C@]2(C(=O)CO)O1 (single isomer, unassigned) [5 A] | 30 γ/animal | > 270 γ/animal | 90 γ/animal |
| CCCCCC1O[C@@H]2C[C@H]3[C@@H]4CCC5=CC(=O)C=C[C@]5(C)[C@@]4(F)[C@@H](O)C[C@]3(C)[C@]2(C(=O)CO)O1 (single isomer, unassigned) [5 B] | 10 γ/animal | > 270 γ/animal | 90 γ/animal |
| CC1O[C@@H]2C[C@H]3[C@@H]4C[C@H](F)C5=CC(=O)C=C[C@]5(C)[C@@]4(F)[C@@H](O)C[C@]3(C)[C@]2(C(=O)CO)O1 (single isomer, unassigned) [7 A] | 15 γ/animal | 20 γ/animal | 12 γ/animal |
